# Data reported in patent publication US11883447B2, “Methods and probiotic compositions for the treatment of metabolic diseases and disorders” (Research Development Foundation, priority 2019, dated 2024).
# Experiments:
# Lactobacillus Reuteri = assay: Bacterial growth in media supplemented with polyamines; assay type: cell-based; details: in vitro, various concentrations in growth media
# From the text: (§1) The inventors next investigated whether culturing several bacteria with beneficial metabolic effects can be affected by presence of polyamines in the growth media. […] To further address whether the general growth of bacteria present in fresh fecal samples is affected, we inoculated fresh mouse fecal content in a growth media supplemented with various concentrations of spermine or spermidine.
# [1] = system: Parabacteroides goldsteinii; assay: as above; assay type: cell-based; details: in vitro, various concentrations in growth media
# From the text: as §1
# Lactobacillus Gaseri = assay: as above; assay type: cell-based; details: in vitro, various concentrations in growth media
# From the text: as §1
# [2] = system: bacterial mix from mouse fecal samples; assay: Growth of bacterial mix from fresh mouse fecal content in media with polyamines; assay type: cell-based; details: in vitro, various concentrations; exponential growth phase
# From the text: as §1
# ovariectomized mice [3] = assay: Oral glucose tolerance test (OGTT) in ovariectomized mice gavaged with bacteria; assay type: in vivo; details: oral gavage every second day
# Procedure: (§2) Ovariectomy: Mice were anesthetised with Xylazin/Ketamin (injection of 120 μl of a mixture of 120 mg/kg ketamine and 16 mg/kg xylazine) and shaved below the ribs on the back side. Betadine was applied to the area for appropriate disinfection. After a 1-2 cm incision through the skin and the muscle layer just below the ribs, the ovary was localized, the fallopian tube ligated with dissolving suture and the ovary removed. The muscle layer was sutured with dissolving suture, the wound closed with staples and disinfected. The same procedure was performed on the other side. A dose of Tamgesic was administered 4 hours after the surgery, and the staples were removed 7 days after the surgery under isoflurane anaesthesia. The sham-operated animals underwent the same procedure, without ligating the fallopian tube and the ovary excision.
# (§3) Single microbe transplantation: Lactobacillus Gasseri (DSM 20604) and Parabacteroides Goldsteinii (DSM 19948) were purchased from DSMZ. Lactobacillus reuteri (PTA-6475) and Akkermansia Muciniphila (BAA835) was purchased from ATCC. […]
# (§4) Metabolic Experiments: Oral glucose tolerance tests (OGTT) were performed after 10 hr overnight fasting by oral gavage of glucose bolus ([…] body weight). […] Insulin level during the OGTT was measured with the Mouse Insulin ELISA kit (ref. 10-1247-01, Mercodia), following the manufacturer's instructions.
# ovariectomized mice [4] = assay: Insulin tolerance test in ovariectomized mice gavaged with bacteria; assay type: in vivo; details: 0.5 U/kg insulin, glycemia over 2 h
# Procedure: as §2, §3, §4
Compound,Growth of Lactobacillus Reuteri (Lactobacillus Reuteri),Growth of Parabacteroides goldsteinii [1],Growth of Lactobacillus Gaseri (Lactobacillus Gaseri),Optical density of fecal bacterial mix [2],Oral glucose tolerance (ovariectomized mice [3]),Insulin sensitivity (insulin tolerance test) (ovariectomized mice [4])
"NCCCNCCCCNCCCN [spermine, N, N′-bis (3-aminopropyl)-1,4-butane diamine]",increased the growth,increased the growth,increased the growth,increased the optical density during the exponential growth phase,–,–
Lactobacillus Reuteri,–,–,–,–,improved,improved
NCCCCNCCCN [spermidine],increased the growth,increased the growth,increased the growth,increased the optical density during the exponential growth phase,–,–
